Measured values taken from US20180021450A1, “ANTI-STAPHYLOCOCCUS AUREUS ANTIBODY RIFAMYCIN CONJUGATES AND USES THEREOF” (Genentech, Inc., priority 2014, published 2018).

Legend:
[1] = test system: S. aureus (USA300), stationary phase; experiment: Time of kill for free antibiotics on non-replicating bacteria; assay type: cell-based, Staphylococcus aureus; conditions: 1×10^-6M antibiotic, overnight incubation in PBS at 37° C.
Description: Time of kill for free antibiotics on non-replicating bacteria: S. aureus (USA300) was taken from an overnight stationary phase culture, washed once in Phosphate Buffered Saline (PBS) and suspended at 1×10^7 CFU/mL in PBS with no antibiotic or with 1×10^-6M antibiotic in a 10 mL volume in 50 mL polypropylene centrifuge tubes. The bacteria were incubated at 37° C. overnight with shaking. At each time point, three 1 mL samples were removed from each culture and centrifuged to collect the bacteria. Bacteria were washed once with PBS to remove the antibiotic and the total number of surviving bacteria was determined by plating serial dilutions of the bacteria on agar plates.
MRSA was collected from a stationary phase culture and suspended in phosphate buffered saline containing no antibiotic or 1×10^-6M of rifampin or the rifamycin-derivative (Rifalog) and incubated at 37° C. At the indicated times, a sample of the culture was collected and centrifuged to remove the antibiotic and the total number of surviving bacteria was determined by plating.

[2] = test system: MRSA (USA300 NRS384 strain); experiment: Murine intravenous infection model (CB17.SCID mice reconstituted with IGIV); assay type: in vivo, Staphylococcus aureus; conditions: single dose 24h post infection; free antibiotic at equal molar concentration
Description: S. aureus is a common colonizer of human skin and mucosal surfaces. […] Mouse serum has no appreciable levels of anti-S aureus antibody. To determine whether endogenous anti-WTA antibodies found in normal human serum might compete for binding with the AAC, CB17.SCID mice (Charles River Laboratories, Hollister, Calif.) were reconstituted with GammaGard S/D IGIV Immune Globulin (ASD Healthcare, Brooks Ky.) using a dosing regimen optimized to achieve constant serum levels of at least 10 mg/mL of human IgG in serum. IGIV was administered with an initial intravenous dose of 30 mg per mouse followed by a second dose of 15 mg/mouse by intraperitoneal (i.p.) injection after 6 hours, and subsequent daily dosings of 15 mg per mouse by intraperitoneal injection for 3 consecutive days. These mice were equally susceptible to infection with MRSA compared to untreated controls.
Mice (n=8 for each of antibody or AAC) were infected 4 hours after the first dose of IGIV with 1×10^7 CFU of MRSA (USA300 NRS384 strain) diluted in phosphate buffered saline by intravenous injection. Infected mice were treated with 50 mg/kg of S4497 naked antibody or S4497 AAC from Table 3. […] The total number of bacteria recovered per organ was determined by plating serial dilutions of the tissue homogenate in PBS 0.05% Tween on Tryptic Soy Agar with 5% defibrinated sheep blood.

[3] = test system: S. aureus (USA300) persister cells; experiment: Killing of persister cells by free antibiotics; assay type: cell-based, Staphylococcus aureus; conditions: ciprofloxacin-treated cultures, second antibiotic 1 ug/ml
Description: Killing of persisters cells by free antibiotics: S. aureus (USA300) was taken from an overnight stationary phase culture, washed once in Tryptic Soy Broth (TSB) and then adjusted to a final concentration of 1×10^7 CFU/ml in a total volume of 10 mL of either TSB or TSB with ciprofloxicin (0.05 mM). Cultures were incubated with shaking at 37° C. for 6 hours and then the second antibiotic, either rifampicin (1 ug/ml) or another rifamycin-type antibiotic (1 ug/ml) was added. At the indicated times, samples were removed from each culture, washed once with PBS to remove the antibiotic and re-suspended in PBS. The total number of surviving bacteria was determined by plating serial dilutions of the bacteria on agar plates. At the final time point the remainder of each culture was collected and plated.

Structure (SMILES): CO[C@H]1/C=C/O[C@@]2(C)Oc3c(C)c(O)c4c(=O)c(c5oc6cc(N7CCC(N(C)C)CC7)cc(O)c6nc-5c4c3C2=O)NC(=O)/C(C)=C\C=C\[C@H](C)[C@H](O)[C@@H](C)[C@@H](O)[C@@H](C)[C@H](OC(C)=O)[C@@H]1C [dimethylpipBOR, dimethylpiperidyl benzoxazino rifamycin]
- decrease in the number of viable, but non-replicating, bacteria [1]: more than 1,000 fold
- efficacy on bacterial counts in infected organs [2]: not efficacicou
- effect on viability of persister cells [3]: eradication of persister cells below the limit of detection
